Laboratory results reported in patent US8822505B2, “Azetidine derivatives” (Hoffmann-La Roche Inc., priority 2012, dated 2014).
Counter-ions that a name gives are not always drawn.

Tests used:
[1] = biological target: human Cat L (Homo sapiens (Human), UniProt P07711); assay: Cathepsin enzyme inhibition assay (human Cat L); type: biochemical; settings: enzyme 1 nM, substrate Z-Val-Val-Arg-AMC 20 μM
Protocol: (§1) Cathepsin Enzyme Inhibition Assay
(§2) Enzyme activity is measured by observing the increase in fluorescence intensity caused by cleavage of a peptide substrate containing a fluorophore whose emission is quenched in the intact peptide.
(§3) Assay buffer: 100 mM potassium phosphate pH 6.5, EDTA-Na 5 mM, Triton X-100 0.001%, DTT 5 mM.
(§4) Enzymes (all at 1 nM): human and mouse Cathepsin S, Cat K, Cat B, Cat L.
(§5) Substrate (20 μM): Z-Val-Val-Arg-AMC, except for Cat K which uses Z-Leu-Arg-AMC (both from Bachem).
Excitation 360 nm, Emission 465 nm.
Enzyme is added to the substance dilutions in 96-well microtitre plates and the reaction is started with substrate. Fluorescence emission is measured over 20 minutes, during which time a linear increase is observed in the absence of inhibitor. IC50 are calculated by standard methods.
Inhibition of human Cat S, mouse Cat S, human Cat K, human Cat B, human Cat L and mouse Cat L have been measured separately. The results obtained for human Cat S and L for representative compounds of the invention are expressed in the following table in μM.

[2] = biological target: human Cat S (Homo sapiens (Human), UniProt P25774); assay: Cathepsin enzyme inhibition assay (human Cat S); type: biochemical; settings: enzyme 1 nM, substrate Z-Val-Val-Arg-AMC 20 μM
Sequence of human Cat S (P25774 115-331): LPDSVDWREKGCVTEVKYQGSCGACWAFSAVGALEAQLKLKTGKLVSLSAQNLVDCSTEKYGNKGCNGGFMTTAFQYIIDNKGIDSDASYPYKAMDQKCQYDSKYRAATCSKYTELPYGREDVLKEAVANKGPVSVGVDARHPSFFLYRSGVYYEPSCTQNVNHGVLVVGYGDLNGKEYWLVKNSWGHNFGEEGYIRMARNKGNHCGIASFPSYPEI
Protocol: as §1, §2, §3, §4, §5
Enzyme is added to the substance dilutions in 96-well microtitre plates and the reaction is started with substrate. […] IC50 are calculated by standard methods.
Inhibition of human Cat S, mouse Cat S, human Cat K, human Cat B, human Cat L and mouse Cat L have been measured separately.

Sequence of human Cat L (P07711 114-333): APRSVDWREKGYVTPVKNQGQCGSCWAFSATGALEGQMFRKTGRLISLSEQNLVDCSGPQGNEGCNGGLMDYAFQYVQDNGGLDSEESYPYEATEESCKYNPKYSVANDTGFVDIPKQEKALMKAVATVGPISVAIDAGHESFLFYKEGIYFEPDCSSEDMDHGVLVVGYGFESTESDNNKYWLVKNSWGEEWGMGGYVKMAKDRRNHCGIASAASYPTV

IC50 ([1]; pH 6.5, hydrochloride) [nM] | IC50 ([2]; pH 6.5, hydrochloride) [nM] | IC50 ([1]; pH 6.5) [nM] | IC50 ([2]; pH 6.5) [nM] | SMILES
1440 | 1.3 | – | – | N#CC1(NC(=O)[C@@H]2C[C@@H](S(=O)(=O)c3ccc(F)cc3Cl)CN2C(=O)C2(c3ncc(Cl)cc3F)CCN2)CC1 (stereo partly drawn) [Example 35, (2S,4R)-4-(2-Chloro-4-fluoro-benzenesulfonyl)-1-[2-(5-chloro-3-fluoro-pyridin-2-yl)-azetidine-2-carbonyl]-pyrrolidine-2-carboxylic acid (1-cyano-cyclopropyl)-amide hydrochloride]
– | – | 621 | 1.42 | N#CC1(NC(=O)[C@@H]2C[C@@H](S(=O)(=O)c3ccc(F)cc3Cl)CN2C(=O)C2(c3ncc(Br)cc3F)CCN2)CC1 (stereo partly drawn) [Example 36, (2S,4R)-1-[2-(5-Bromo-3-fluoro-pyridin-2-yl)-azetidine-2-carbonyl]-4-(2-chloro-4-fluoro-benzenesulfonyl)-pyrrolidine-2-carboxylic acid (1-cyano-cyclopropyl)-amide hydrochloride]
58.5 | 3.83 | – | – | C[C@H](Oc1ccc(S(=O)(=O)[C@@H]2C[C@@H](C(=O)NC3(C#N)CC3)N(C(=O)C3(c4ncc(Cl)cc4F)CCN3)C2)c(Cl)c1)C(F)(F)F (stereo partly drawn) [Example 37, (2S,4R)-1-[2-(5-Chloro-3-fluoro-pyridin-2-yl)-azetidine-2-carbonyl]-4-[2-chloro-4-((S)-2,2,2-trifluoro-1-methyl-ethoxy)-benzenesulfonyl]-pyrrolidine-2-carboxylic acid (1-cyano-cyclopropyl)-amide hydrochloride]
317 | 4.16 | – | – | C[C@H](Oc1ccc(S(=O)(=O)[C@@H]2C[C@@H](C(=O)NC3(C#N)CC3)N(C(=O)C3(c4ncc(Cl)cc4F)CCN3)C2)c(Cl)c1)C(F)(F)F (stereo partly drawn) [Example 38, (2S,4R)-1-[2-(5-Chloro-3-fluoro-pyridin-2-yl)-azetidine-2-carbonyl]-4-[2-chloro-4-((S)-2,2,2-trifluoro-1-methyl-ethoxy)-benzenesulfonyl]-pyrrolidine-2-carboxylic acid (1-cyano-cyclopropyl)-amide hydrochloride]
– | – | 26.9 | 5.46 | C[C@H](Oc1ccc(S(=O)(=O)[C@@H]2C[C@@H](C(=O)NC3(C#N)CC3)N(C(=O)C3(c4ncc(Br)cc4F)CCN3)C2)c(Cl)c1)C(F)(F)F (stereo partly drawn) [Example 39, (2S,4R)-1-[2-(5-Bromo-3-fluoro-pyridin-2-yl)-azetidine-2-carbonyl]-4-[2-chloro-4-((S)-2,2,2-trifluoro-1-methyl-ethoxy)-benzenesulfonyl]-pyrrolidine-2-carboxylic acid (1-cyano-cyclopropyl)-amide hydrochloride]
– | – | 662 | 4.6 | Cc1cc(-c2ccc(S(=O)(=O)[C@@H]3C[C@@H](C(=O)NC4(C#N)CC4)N(C(=O)C4(c5ncc(Br)cc5F)CCN4C(=O)OC(C)(C)C)C3)c(Cl)c2)ccn1 (stereo partly drawn) [Example 42, 2-(5-Bromo-3-fluoro-pyridin-2-yl)-2-[(2S,4R)-4-[2-chloro-4-(2-methyl-pyridin-4-yl)-benzenesulfonyl]-2-(1-cyano-cyclopropylcarbamoyl)-pyrrolidine-1-carbonyl]-azetidine-1-carboxylic acid tert-butyl ester]
– | – | 86.6 | 2.33 | Cc1cc(-c2ccc(S(=O)(=O)[C@@H]3C[C@@H](C(=O)NC4(C#N)CC4)N(C(=O)C4(c5ncc(Cl)cc5F)CCN4)C3)c(Cl)c2)ccn1 (stereo partly drawn) [Example 43, (2S,4R)-1-[2-(5-Chloro-3-fluoro-pyridin-2-yl)-azetidine-2-carbonyl]-4-[2-chloro-4-(2-methyl-pyridin-4-yl)-benzenesulfonyl]-pyrrolidine-2-carboxylic acid (1-cyano-cyclopropyl)-amide hydrochloride]
– | – | 70.6 | 2.08 | Cc1cc(-c2ccc(S(=O)(=O)[C@@H]3C[C@@H](C(=O)NC4(C#N)CC4)N(C(=O)C4(c5ncc(Br)cc5F)CCN4)C3)c(Cl)c2)ccn1 (stereo partly drawn) [Example 44, (2S,4R)-1-[2-(5-Bromo-3-fluoro-pyridin-2-yl)-azetidine-2-carbonyl]-4-[2-chloro-4-(2-methyl-pyridin-4-yl)-benzenesulfonyl]-pyrrolidine-2-carboxylic acid (1-cyano-cyclopropyl)-amide hydrochloride]
– | – | 625 | 0.965 | Cn1cc(-c2ccc(S(=O)(=O)[C@@H]3C[C@@H](C(=O)NC4(C#N)CC4)N(C(=O)C4(c5ncc(Cl)cc5F)CCN4C(=O)OC(C)(C)C)C3)c(Cl)c2)cn1 (stereo partly drawn) [Example 45, tert-butyl 2-(5-chloro-3-fluoropyridin-2-yl)-2-((2S,4R)-4-(2-chloro-4-(1-methyl-1H-pyrazol-4-yl)phenylsulfonyl)-2-(1-cyanocyclopropylcarbamoyl)pyrrolidine-1-carbonyl)azetidine-1-carboxylate]
– | – | 82.1 | 0.791 | Cn1cc(-c2ccc(S(=O)(=O)[C@@H]3C[C@@H](C(=O)NC4(C#N)CC4)N(C(=O)C4(c5ncc(Cl)cc5F)CCN4)C3)c(Cl)c2)cn1 (stereo partly drawn) [Example 47, (2S,4R)-1-[2-(5-Chloro-3-fluoro-pyridin-2-yl)-azetidine-2-carbonyl]-4-[2-chloro-4-(1-methyl-1H-pyrazol-4-yl)-benzenesulfonyl]-pyrrolidine-2-carboxylic acid (1-cyano-cyclopropyl)-amide hydrochloride]
– | – | 98.9 | 1.85 | Cn1cc(-c2ccc(S(=O)(=O)[C@@H]3C[C@@H](C(=O)NC4(C#N)CC4)N(C(=O)C4(c5ncc(Br)cc5F)CCN4)C3)c(Cl)c2)cn1 (stereo partly drawn) [Example 48, (2S,4R)-1-[2-(5-Bromo-3-fluoro-pyridin-2-yl)-azetidine-2-carbonyl]-4-[2-chloro-4-(1-methyl-1H-pyrazol-4-yl)-benzenesulfonyl]-pyrrolidine-2-carboxylic acid (1-cyano-cyclopropyl)-amide hydrochloride]
– | – | 5 | 0.9 | C[C@H](Oc1ccc(S(=O)(=O)[C@@H]2C[C@@H](C(=O)NC3(C#N)CC3)N(C(=O)C3(c4ncc(Br)cc4F)CN(C=O)C3)C2)c(Cl)c1)C(F)(F)F [Example 50, (2S,4R)-1-[3-(5-Bromo-3-fluoro-pyridin-2-yl)-1-formyl-azetidine-3-carbonyl]-4-[2-chloro-4-((S)-2,2,2-trifluoro-1-methyl-ethoxy)-benzenesulfonyl]-pyrrolidine-2-carboxylic acid (1-cyano-cyclopropyl)-amide]
– | – | 7 | 2 | COC(=O)N1CC(C(=O)N2C[C@H](S(=O)(=O)c3ccc(O[C@@H](C)C(F)(F)F)cc3Cl)C[C@H]2C(=O)NC2(C#N)CC2)(c2ncc(Br)cc2F)C1 [Example 51, 3-(5-Bromo-3-fluoro-pyridin-2-yl)-3-[(2S,4R)-4-[2-chloro-4-((S)-2,2,2-trifluoro-1-methyl-ethoxy)-benzenesulfonyl]-2-(1-cyano-cyclopropylcarbamoyl)-pyrrolidine-1-carbonyl]-azetidine-1-carboxylic acid methyl ester]
– | – | 6 | 1 | C[C@H](Oc1ccc(S(=O)(=O)[C@@H]2C[C@@H](C(=O)NC3(C#N)CC3)N(C(=O)C3(c4ncc(Br)cc4F)CN(CC(F)(F)F)C3)C2)c(Cl)c1)C(F)(F)F [Example 52, (2S,4R)-1-[3-(5-Bromo-3-fluoro-pyridin-2-yl)-1-(2,2,2-trifluoro-ethyl)-azetidine-3-carbonyl]-4-[2-chloro-4-((S)-2,2,2-trifluoro-1-methyl-ethoxy)-benzenesulfonyl]-pyrrolidine-2-carboxylic acid (1-cyano-cyclopropyl)-amide]

SMILES | IC50 ([1]; pH 6.5, hydrochloride) [nM] | IC50 ([2]; pH 6.5, hydrochloride) [nM] | IC50 ([1]; pH 6.5) [nM] | IC50 ([2]; pH 6.5) [nM]
C[C@H](Oc1ccc(S(=O)(=O)[C@@H]2C[C@@H](C(=O)NC3(C#N)CC3)N(C(=O)C3(c4ncc(Br)cc4F)CN(CC(F)F)C3)C2)c(Cl)c1)C(F)(F)F [Example 49, (2S,4R)-1-[3-(5-Bromo-3-fluoro-pyridin-2-yl)-1-(2,2-difluoro-ethyl)-azetidine-3-carbonyl]-4-[2-chloro-4-((S)-2,2,2-trifluoro-1-methyl-ethoxy)-benzenesulfonyl]-pyrrolidine-2-carboxylic acid (1-cyano-cyclopropyl)-amide] | – | – | 5 | 1
